Source: ChEMBL document CHEMBL1926646 (Bioorg Med Chem, 2011)
Active and inactive are the calls of the source. No cut-off for these calls is given here.

Experiments:
Dipeptidyl peptidase 8 = Dipeptidyl peptidase 8 (Homo sapiens, UniProt Q6V1X1); assay: Inhibition of human recombinant DPP-8 expressed in Sf9 cells using H-Gly-Pro-AMC as substrate preincubated for 30 mins before substrate addition measured after 20 mins by fluorescence assay
Rattus norvegicus [1] = assay: Antidiabetic activity in Wistar/ST rat plasma assessed as reduction in glucose AUC (0 to 60 mins) at 1 mg/kg, po pretreated 30 mins before glucose challenge measured for 2 hrs by oral glucose tolerance test; format: functional, organism-based; design: dose 1 mg/kg
Rattus norvegicus [2] = assay: Inhibition of plasma DPP-4 activity in orally dosed Wistar/ST rat pretreated 30 mins before glucose challenge measured for 2 hrs during oral glucose tolerance test; format: functional, organism-based
Rattus norvegicus [3] = assay: Increase in insulin level in Wistar/ST rat at 0.1 to 1 mg/kg, po pretreated 30 mins before glucose challenge measured after 10 mins; format: functional, organism-based

Chain of Dipeptidyl peptidase 8 (Q6V1X1 whole entry): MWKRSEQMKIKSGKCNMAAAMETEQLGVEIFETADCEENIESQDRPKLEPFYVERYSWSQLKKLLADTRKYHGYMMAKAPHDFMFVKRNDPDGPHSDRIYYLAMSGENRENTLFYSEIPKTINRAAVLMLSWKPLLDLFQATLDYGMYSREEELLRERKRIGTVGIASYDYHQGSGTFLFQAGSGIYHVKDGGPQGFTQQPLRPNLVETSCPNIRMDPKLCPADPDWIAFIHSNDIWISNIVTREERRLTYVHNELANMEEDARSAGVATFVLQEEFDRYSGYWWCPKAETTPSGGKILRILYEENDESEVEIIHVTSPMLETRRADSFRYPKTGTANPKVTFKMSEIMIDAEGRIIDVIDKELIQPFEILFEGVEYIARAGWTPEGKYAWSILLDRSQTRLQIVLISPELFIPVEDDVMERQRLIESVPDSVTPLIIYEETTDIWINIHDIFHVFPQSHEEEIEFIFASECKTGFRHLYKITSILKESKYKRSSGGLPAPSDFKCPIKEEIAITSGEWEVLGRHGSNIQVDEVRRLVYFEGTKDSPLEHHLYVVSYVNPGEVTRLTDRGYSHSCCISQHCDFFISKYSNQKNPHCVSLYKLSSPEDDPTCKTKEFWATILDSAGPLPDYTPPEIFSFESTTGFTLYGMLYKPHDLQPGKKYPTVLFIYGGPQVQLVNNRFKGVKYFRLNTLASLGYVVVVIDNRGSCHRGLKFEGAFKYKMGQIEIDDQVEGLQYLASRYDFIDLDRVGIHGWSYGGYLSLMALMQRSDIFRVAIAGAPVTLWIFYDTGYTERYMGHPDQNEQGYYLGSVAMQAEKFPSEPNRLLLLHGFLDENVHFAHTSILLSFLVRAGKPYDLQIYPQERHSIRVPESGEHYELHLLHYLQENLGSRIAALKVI

| SMILES | IC50 (Dipeptidyl peptidase 8) | Activity (Rattus norvegicus [1]) | inhibition (Rattus norvegicus [2]) | Activity (Rattus norvegicus [3]) |
| --- | --- | --- | --- | --- |
| Cc1nc2cc(C(C)(C)C)nn2c(C)c1C(=O)NCC(C)(C)NCC(=O)N1CCC[C@H]1C#N | > 100 µM | – | – | – |
| Cc1cc2ncc(C(=O)NCC(C)(C)NCC(=O)N3CCC[C@H]3C#N)cn2n1 | – | Active | Dose-dependent effect | Active |
